What was measured:
Assay type in all cases: physicochemical
[1] = Viscosity (stated finding, no method given)
[2] = Determining water solubility (pH 7 buffer, HPLC of supernatant); settings: for Concentration measured by HPLC after treatment, %: pH 7 buffer, 20° C.
Experimental: A stock pH 7 buffer solution was prepared by adding aqueous sodium hydroxide solution (0.1 M, 145 mL) to aqueous potassium dihydrogen phosphate solution (0.1 M, 250 mL), and then adding sufficient distilled water to adjust the final volume to 500 mL. At least 1 time and up to about 5 times the amount of tribenuron-methyl needed for saturation was added to a mixing vessel containing stock buffer solution at the test temperature (e.g., 20° C.). The mixture was magnetically stirred in the dark while being maintained at the test temperature. Samples were periodically removed for analysis. The samples were centrifuged using a high speed, temperature-controlled centrifuge at the test temperature for about 20 minutes at >12000 G to remove suspended particles. An aliquot of each supernatant was taken for analysis. The concentration of tribenuron-methyl in the supernatant was determined by a high pressure liquid chromatography (HPLC) with a reversed phase chromatography column and UV detection. The method should include development of best-fit calibration curves based on at least three standards using linear regression analysis. Samples were successively withdrawn from the mixing vessel and analyzed until three successive samples show little or no variation in concentration. The test is preferably replicated to ensure accuracy.

[3] = Cleanout test (residual tribenuron-methyl in acetonitrile extract of rinsed bottle); settings: for Cleanout rating, % (concentration of tribenuron-methyl in the acetonitrile solution): lower rating = more effective cleanout
Experimental: The cleanout test was conducted by dispersing in water a sample to produce a concentration that is normally used when applying the herbicide: 25% tribenuron-methyl. The sample was added to tap water (300 mL) in a 400 mL beaker and magnetically stirred for 2 minutes. The mixture was then stirred for 2 minutes, whereupon the resulting dispersion was dispensed in three 100 mL aliquots to 4-oz (118 mL) polyethylene bottles. The bottles were capped, inverted twice and allowed to stand overnight.
After standing overnight, each individual bottle was inverted twice and the liquid contents were then poured out. Tap water (10 mL) was added and the bottle was inverted until all sediment was re-suspended, whereupon the contents were poured out. Tap water (100 mL) was added and the bottle was inverted twice and then allowed to stand undisturbed for 10 minutes. The bottle was inverted twice more and the contents were poured out. Acetonitrile (10 mL) was added to the bottle to extract any remaining material. The acetonitrile solution was analyzed by reversed-phase liquid chromatography with UV detection. The cleanout rating (the concentration of tribenuron-methyl herbicide in the acetonitrile solution) is reported in % in Table 6 below.

[4] = OD formulation, measured vs original concentration 40%
[5] = OD formulation, original concentration 40%
[6] = SG formulation, measured vs original concentration 25%
[7] = SG formulation, original concentration 25%
[8] = WG formulation, measured vs original concentration 25%
[9] = WG formulation, original concentration 25%

Compound | Viscosity (in words) ([1]; listed as tribenuron-methyl in amorphous state) | Solubility [2, 4] [%] | Concentration measured by HPLC after treatment, % [2, 5] [%] | Solubility [2, 6] [%] | Concentration measured by HPLC after treatment, % [2, 7] [%] | Solubility [2, 8] [%] | Concentration measured by HPLC after treatment, % [2, 9] [%] | Cleanout rating, % (concentration of tribenuron-methyl in the acetonitrile solution) ([3]; OD formulation, prepared in Example 1) [%] | Cleanout rating, % (concentration of tribenuron-methyl in the acetonitrile solution) ([3]; SG formulation, prepared in Example 1) [%] | Cleanout rating, % (concentration of tribenuron-methyl in the acetonitrile solution) ([3]; WG formulation) [%] | Viscosity (in words) ([1]; listed as crystalline modification I of tribenuron-methyl) | Solubility (in words) ([2]; compared with amorphous tribenuron-methyl) | Cleanout rating, % (concentration of tribenuron-methyl in the acetonitrile solution) ([3]; OD formulation) [%] | Cleanout rating, % (concentration of tribenuron-methyl in the acetonitrile solution) ([3]; SG formulation) [%] | Cleanout properties (in words) ([3]; compared with known amorphous tribenuron-methyl product)
COC(=O)c1ccccc1S(=O)(=O)NC(=O)N(C)c1nc(C)nc(OC)n1 [Amorphous tribenuron-methyl (prepared in Example 1)] [methyl 2-[4-methoxy-6-methyl-1,3,5-triazin-2-yl(methyl)carbamoylsulfamoyl]benzoate, reference compound] | highly viscous | 35 | 14 | 60 | 15 | 48 | 12 | 26 | 10 | 13 | – | – | – | – | –
COC(=O)c1ccccc1S(=O)(=O)NC(=O)N(C)c1nc(C)nc(OC)n1 [Tribenuron-methyl, crystalline modification I, 98% (prepared] [methyl 2-[4-methoxy-6-methyl-1,3,5-triazin-2-yl(methyl)carbamoylsulfamoyl]benzoate] | – | 88 | 35 | 99.6 | 24.9 | 92 | 23 | – | – | 2 | significant decrease in its viscosity | significant increase in its solubility | 5 | 0.1 | markedly superior cleanout properties

From patent US9643936B1, “Form of tribenuron-methyl, a process for its preparation and use of the same” (ROTAM AGROCHEM INTERNATIONAL COMPANY LIMITED, priority 2015, dated 2017)
